# Reference: patent US20150352075A1, “Treatment of Alzheimer's and Cognitive Impairment With Andrographolides” (INNOBIOSCIENCE, LLC, priority 2013, published 2015)
# What was measured:
# [1] = system: APPswe/PS-1 double transgenic mice; assay: Memory flexibility test (modified Morris Water Maze); assay type: in vivo; details: 7-month-old APPswe/PS-1 mice, 2.0 mg/kg IP three times per week, four weeks, vs Tg control
# [2] = system: APPswe/PS-1 double transgenic mice; assay: Classical Morris Water Maze test; assay type: in vivo; details: 12 month-old APPswe/PS-1 mice, 2.0 mg/kg IP three times per week, four weeks, vs Tg control
# [3] = system: APPswe/PS-1 double transgenic mice; assay: Immunoblot of synaptic proteins in hippocampus and cortex of treated mice; assay type: in vivo
# [4] = system: APPswe/PS-1 double transgenic mice; assay: Tau phosphorylation (PHF-1, AT8) by immunoblot and immunohistochemistry in treated mice; assay type: in vivo
# HEK293T cells = assay: TOPflash/FOPflash luciferase reporter assay; assay type: cell-based
# Protocol: 150,000 HEK293T cells were seeded in triplicate per condition and kept for 24 hours at 37° C. with 5% CO2. The cultures were transfected with TOPflash or FOPflash (400 ng), which are firefly-luciferase reporter DNA constructs (Milipore), using LipofectAMINE 2000 (Invitrogen). To control for transfection pRL-TK (10 ng) was included in all transfections. […] Values were normalized by the renilla value from the same well. To statistically compare treatments ANOVA was used.
# [5] = system: dentate gyrus of wild-type mice; assay: Adult hippocampal neurogenesis (Ki67, DCX immunofluorescence); assay type: in vivo
# Protocol: Animals. Two-month-old C57BC6 wild-type mice were treated and handled according to National Institutes of Health guidelines (NIH, […], Md.). The treatments were performed by intraperitoneal (ip) injection of 2.0 mg/kg ANDRO and wild-type control animals were injected only with saline solution as vehicle.
# Mice were anesthetized (100 μg ketamine+10 μg xylazine in […] saline/g), and then transcardially perfused with saline, followed by 4% paraformaldehyde (PFA) in 0.1M PBS. The brains were removed and incubated in PBS-4% PFA for 24 h at room temperature, dehydrated in 30% sucrose and kept at 4° C. until analysis.
# After dehydration, each mouse brain was sectioned on a cryostate in 12 sets of serial coronal sections of […] thickness (Leica Microsystems, Wetzlar, Germany) and collected in ice-cold-PBS in multiwell dishes.Each set contained 5-7 sections covering the entire length of the hippocampus.
# Sections were washed with PBS 3 times for 5 min and then incubated in blocking solution (3% donkey serum, 3% BSA, 0.5% Triton X-100 in PBS) for 4 h. Then, tissues were incubated overnight with primary antibodies at 4° C. Primary antibodies used were: rabbit anti-Ki67 (Abcam), rabbit anti-DCX (Cell Signaling Technology Inc., Beverly, Mass., USA), monoclonal anti-NeuN (Millipore, Billerica, Mass., USA). After washing 3 times with 0.5% Triton X-100 PBS, sections were incubated with Dy Light (Abcam) conjugated secondary antibodies for 2 h at room temperature. […] For quantification, Ki67 positive cells were countedusing a fluorescence microscope (Olympus BX51, Tokyo, Japan). Cells were counted in all sections of one set (see tissue sectioning). Total cells counted in one set were multiplied by the total number of sets to obtain an estimation of the total number of Ki67+ cells in the complete hippocampus. For quantification of the % area covered by DCX, double labeling DCX/NeuN was carried. […] Images shown were analyzed by confocal laser microscopy (Olympus FV 1000) and z-projections were generated with ImageJ software.
# [6] = 2-month-old mice, 2 mg/kg i.p. 3 times per week for 4 weeks
compound,measurement,setting,value
"C=C1CC[C@@H]2C(C)(CO)C(O)CC[C@@]2(C)C1C/C=C1/C(=O)OCC1O (stereo in doubt) [ANDRO, 3-(2-(Decahydro-6-hydroxy-5-(hydroxymethyl)-5,8a-dimethyl-2-methylenenaphthyl)ethylidene)dihydro-4-hydroxyfuran-2(3H)-one]",number of trial to criterion of learning,[1],reduction in the number of trial to criterion of learning
same,escape latency,[2],significantly lower escape latency values
same,PSD-95 and GluA2 levels,[3]; mature Tg mice,increase of PSD-95 and GluA2 levels
same,total levels of pre-synaptic proteins SYP and VAMP,[3]; young APPswe/PS-1 mice,unaltered
same,"levels of post-synaptic proteins (Shank, GluN2B, GluA2, PSD-95)","[3]; young APPswe/PS-1 mice, hippocampus and cortex",significantly recovers the post-synaptic proteins
same,number of AT8-positive neurons next to amyloid deposits,"[4]; 6 month-old APPswe/PS-1, circular area surrounding plaques",clear decrease in the number of AT8-positive neurons next to amyloid deposits
same,total AT8-positive cells outside the circular area around the plaques,[4]; hippocampus,decrease in the number of these cells
same,PHF-1- and AT8-positive tau levels (immunoblot),"[4]; hippocampus of 6 month-old APPswe/PS-1 mice, vs untreated",reduction in PHF-1- and AT8-positive tau levels
same,FOPflash reporter activity,"HEK293T cells; 10 μM, 24 h",not in the FOPflash
same,TOPflash reporter activity,"HEK293T cells; 10 μM, 24 h",significant increase in the TOPflash
same,increase of luciferase reporter over control,"HEK293T cells; HEK293T, TOPflash",4 fold
same,percentage of the granular cell layer covered by DCX staining,[5]; [6],significantly increased
same,total number of Ki67+ cells in the SGZ,[5]; [6],significantly increased the total number of Ki67^+ cells
same,morphology of DCX+ cells,[5]; compared to control mice,more complex morphology
